Results from EP2170885B1, “BETA-CARBOLINE ARYLSULFONAMIDES, METHOD FOR PREPARING THEM AND COMPOSITION COMPRISING THEM” (C4T S.C. a.r.l., priority 2007, dated 2008).

How the values were obtained:
Assay type in all cases: biochemical
MMP3 = target: T1, MMP3 (Homo sapiens, UniProt P08254); experiment: Fluorimetric enzymatic test, MMP3; settings: for IC50: catalytic domain, fluorimetric test
T1 construct: in the form of the catalytic domains alone for the other MMPs
Procedure: (§1) Determination of the modulatory activity on the proteolytic action of the various MMPs tested (MMP1, 2, 3, 8, 9, 12, 13 and 14) using the compounds of formula (I) according to the present invention was performed via fluorometry on a 96-well plate.
(§2) The test compounds were dissolved in DMSO to a concentration of 5 mM or 50 mM. 5-fold or 10-fold (D5 or D10) serial dilutions of each compound were prepared so as to reach the nominal range of 5 assays on which the test was performed. Each of the dilutions was added to a well containing 150 µl of activated buffer (50 mM Tris/HCl; 0.1 M NaCl; 10 mM CaCl2; 0.05% Brij 35) together with the enzyme on which the test was performed.
(§3) After incubation for one hour at 37°C of the compound with the enzyme, 50 µl of a solution of fluorogenic substrate were added to a final concentration of between 2 and 7 µM.
(§4) The fluorometric readings were then taken using a Varian Cary Eclipse spectrofluorometer regulated on the specific wavelength for the substrate used, at time T0 and after 3 hours of incubation at 37° (T3h).

MMP12 = target: T2, MMP12 (Homo sapiens, UniProt P39900); experiment: Fluorimetric enzymatic test, MMP12; settings: catalytic domain
T2 construct: in the form of the catalytic domains alone for the other MMPs
Procedure: as §1, §2
(§5) The concentration of the enzyme [in full-length form in the case of MMP2; in the form of the catalytic domains alone for the other MMPs] ranged between 0.5 nM and 3 nM based on the activity of the enzyme on the fluorogenic substrate used (7-methoxycoumarin-4-yl)-Pro-Leu-Gly-Leu-DPA-Ala-Arg-NH2 (MCA-1) for MMP 1, 2, 3, 8, 9, 12 and 14) and MCA-Pro-(L-cyclohexylalanine)-Gly-(L-norvaline)-His-Ala-3-(2,4-dinitrophenyl)-L-2,3-diaminopropionyl)-NH2 for MMP13) (Knight et al. 1992. FEBS Lett. 296, 263; Knauper et al. 1996, J. Biol. Chem. 271, 1544).
as §3, §4

MMP1 = target: T3, MMP1 (Homo sapiens, UniProt P03956); experiment: Fluorimetric enzymatic test, MMP1; settings: for IC50: catalytic domain, fluorimetric test
T3 construct: in the form of the catalytic domains alone for the other MMPs
T3 sequence (P03956 98-276 limits assumed): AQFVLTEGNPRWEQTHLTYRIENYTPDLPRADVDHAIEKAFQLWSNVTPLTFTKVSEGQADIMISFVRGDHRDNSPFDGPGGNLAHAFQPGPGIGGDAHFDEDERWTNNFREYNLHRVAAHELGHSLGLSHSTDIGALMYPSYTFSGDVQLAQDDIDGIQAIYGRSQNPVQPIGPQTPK
Procedure: as §1, §2, §3, §4

MMP14 = target: T4, MMP14 (Homo sapiens, UniProt P50281); experiment: Fluorimetric enzymatic test, MMP14; settings: for IC50: catalytic domain, fluorimetric test
T4 construct: in the form of the catalytic domains alone for the other MMPs
Procedure: as §1, §2, §5, §3, §4

MMP8 = target: T5, MMP8 (Homo sapiens, UniProt P22894); experiment: Fluorimetric enzymatic test, MMP8; settings: catalytic domain
T5 construct: in the form of the catalytic domains alone for the other MMPs
Procedure: as §1, §2, §5, §3, §4

MMP13 = target: T6, MMP13 (Homo sapiens, UniProt P45452); experiment: Fluorimetric enzymatic test, MMP13; settings: catalytic domain
T6 construct: in the form of the catalytic domains alone for the other MMPs
Procedure: as §1, §2, §3, §4

MMP9 = target: T7, MMP9 (Homo sapiens, UniProt P14780); experiment: Fluorimetric enzymatic test, MMP9; settings: catalytic domain
T7 construct: in the form of the catalytic domains alone for the other MMPs
Procedure: as §1, §2, §5, §3, §4

MMP2 = target: T8, MMP2 (Homo sapiens, UniProt P08253); experiment: Fluorimetric enzymatic test, MMP2; settings: full enzyme, read-out: IC50MMP2 (full enzyme)
T8 construct: in full-length form in the case of MMP2
T8 sequence (P08253 110-660): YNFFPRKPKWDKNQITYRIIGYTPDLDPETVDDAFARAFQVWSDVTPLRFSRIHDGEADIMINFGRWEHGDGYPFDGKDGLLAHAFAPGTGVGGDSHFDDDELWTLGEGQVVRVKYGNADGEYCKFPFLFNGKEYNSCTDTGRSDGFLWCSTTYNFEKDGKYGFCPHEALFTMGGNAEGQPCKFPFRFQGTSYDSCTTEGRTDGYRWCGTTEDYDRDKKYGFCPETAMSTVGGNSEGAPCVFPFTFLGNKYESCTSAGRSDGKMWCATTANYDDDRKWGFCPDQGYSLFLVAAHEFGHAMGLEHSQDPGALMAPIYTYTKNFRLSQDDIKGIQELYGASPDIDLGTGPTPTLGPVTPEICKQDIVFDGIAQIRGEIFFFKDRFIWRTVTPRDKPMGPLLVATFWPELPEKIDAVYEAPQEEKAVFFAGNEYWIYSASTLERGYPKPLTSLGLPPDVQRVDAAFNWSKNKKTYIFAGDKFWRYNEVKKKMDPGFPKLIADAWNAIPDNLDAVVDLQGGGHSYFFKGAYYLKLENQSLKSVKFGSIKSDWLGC
Procedure: as §1, §2, §3, §4

[1] = relative to the limit value of 0.3 nM for MMP2

T2 sequence (P39900 106-263 limits assumed, species assumed): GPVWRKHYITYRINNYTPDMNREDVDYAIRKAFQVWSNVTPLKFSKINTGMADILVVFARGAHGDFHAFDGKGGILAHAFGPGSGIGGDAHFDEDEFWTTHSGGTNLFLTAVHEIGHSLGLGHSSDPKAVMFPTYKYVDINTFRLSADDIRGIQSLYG
T5 sequence (P22894 100-262 limits assumed, species assumed): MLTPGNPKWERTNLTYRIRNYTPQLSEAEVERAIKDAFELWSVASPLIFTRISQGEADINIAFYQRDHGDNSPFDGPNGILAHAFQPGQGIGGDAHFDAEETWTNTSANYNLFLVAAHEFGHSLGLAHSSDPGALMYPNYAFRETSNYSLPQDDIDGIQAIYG
T1 sequence (P08254 100-272 limits assumed, species assumed): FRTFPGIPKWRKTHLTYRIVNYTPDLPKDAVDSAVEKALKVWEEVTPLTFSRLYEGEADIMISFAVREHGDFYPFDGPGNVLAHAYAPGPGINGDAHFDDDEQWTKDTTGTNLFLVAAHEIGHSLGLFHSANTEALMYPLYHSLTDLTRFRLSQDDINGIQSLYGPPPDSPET
T7 sequence (P14780 107-444 limits assumed, species assumed): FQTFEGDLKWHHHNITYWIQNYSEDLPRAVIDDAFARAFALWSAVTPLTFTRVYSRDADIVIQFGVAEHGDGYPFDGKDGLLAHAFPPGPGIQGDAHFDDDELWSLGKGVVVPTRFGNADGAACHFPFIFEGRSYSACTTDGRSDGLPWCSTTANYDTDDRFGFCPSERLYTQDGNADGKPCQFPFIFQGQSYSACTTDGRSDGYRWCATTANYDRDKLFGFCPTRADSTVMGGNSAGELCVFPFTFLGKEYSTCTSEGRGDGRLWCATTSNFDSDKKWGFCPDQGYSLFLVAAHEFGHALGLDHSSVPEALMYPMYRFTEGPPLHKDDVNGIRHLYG

Row | Structure (SMILES) | IC50 (MMP3) | IC50 (MMP12) | IC50 (MMP1) | IC50 (MMP14) | IC50 (MMP8) | IC50 (MMP13) | IC50 (MMP9) | IC50 (MMP2) | decrease in inhibitory power with respect to MMP3 (MMP3; [1]) | decrease in inhibitory power with respect to MMP1 (MMP1; [1]) | decrease in inhibitory power with respect to MMP14 (MMP14; [1])
1 | COc1ccc(Oc2ccc(S(=O)(=O)N3CCc4c([nH]c5ccccc45)C3C(=O)O)cc2)cc1 (racemic) [Compound 2, (1RS)-2-(4"-methoxy-4'-phenoxybenzenesulfonyl)-1,2,3,4-tetrahydronorarmano-1-carboxylic acid] | > 50000 nM | 500 ± 100 nM | > 50000 nM | > 50000 nM | 1600 ± 200 nM | 15000 ± 5000 nM | 2200 ± 800 nM | 600 ± 100 nM | – | – | –
2 | O=C(O)C1c2[nH]c3ccccc3c2CCN1S(=O)(=O)c1ccc(-c2ccccc2)cc1 (racemic) [Compound 3, (1RS)-2-(4'-phenylbenzenesulfonyl)-1,2,3,4-tetrahydro-norarmano-1-carboxylic acid] | 11000 ± 1000 nM | 300 ± 50 nM | > 50000 nM | 30000 ± 2000 nM | 3000 ± 700 nM | 160 ± 50 nM | 7500 ± 5000 nM | 600 ± 800 nM | – | – | –
3 | CCCCOc1ccc(S(=O)(=O)N2CCc3c([nH]c4ccccc34)C2C(=O)O)cc1 (racemic) [Compound 4, (1 RS)-2-(4'-butoxybenzenesulfonyl)-1,2,3,4-tetrahydro-norarmano-1-carboxylic acid] | – | 4500 ± 1000 nM | > 50000 nM | – | 30000 nM | 2000 ± 500 nM | 24000 ± 1000 nM | 680 ± 200 nM | – | – | –
4 | Cc1ccc(S(=O)(=O)N2CCc3c([nH]c4ccccc34)C2C(=O)O)cc1 (racemic) [Compound 5, (1RS)-2-(4-methylbenzenesulfonyl)-1,2,3,4-tetrahydro-norarmano-1-carboxylic acid] | – | – | – | – | – | – | 141000 nM | 15000 nM | – | – | –
5 | O=C(O)C1c2[nH]c3ccccc3c2CCN1S(=O)(=O)c1ccc2ccccc2c1 (racemic) [Compound 6, (1RS)-2-(2-naphthylsulfonyl)-1,2,3,4-tetrahydro-norarmano-1-carboxylic acid] | – | – | – | – | – | – | 62000 ± 5000 nM | 2500 ± 100 nM | – | – | –
6 | CC(C)(C)c1ccc(S(=O)(=O)N2CCc3c([nH]c4ccccc34)C2C(=O)O)cc1 (racemic) [Compound 7, (1 RS)-2-(4'-t-butylbenzenesulfonyl)-1,2,3,4-tetrahydro-norarmano-1-carboxylic acid] | – | – | – | – | – | – | – | > 125000 nM | – | – | –
7 | O=C(O)C1c2[nH]c3ccccc3c2CCN1S(=O)(=O)c1ccc(Oc2ccc(Cl)cc2)cc1 (racemic) [Compound 8, (1 RS)-2-(4"-chloro-4'-phenoxybenzenesulfonyl)-1,2,3,4-tetrahydronorarmano-1-carboxylic acid] | > 50000 nM | 2000 ± 200 nM | > 50000 nM | > 50000 nM | 10000 ± 1000 nM | 800 ± 200 nM | 15000 ± 4000 nM | 10000 ± 2000 nM | – | – | –
8 | O=C(O)C1c2[nH]c3ccccc3c2CCN1S(=O)(=O)c1ccc(Oc2ccc(F)cc2)cc1 (racemic) [Compound 9, (1 RS)-2-(4"-fluoro-4'phenoxybenzenesulfonyl)-1,2,3,4-tetrahydronorarmano-1-carboxylic acid] | > 50000 nM | 2000 ± 300 nM | > 50000 nM | > 50000 nM | 21000 ± 2000 nM | > 50000 nM | 4000 ± 1000 nM | 28000 ± 1000 nM | – | – | –
9 | CCCCOc1ccc(S(=O)(=O)N2CCc3c([nH]c4ccccc34)C2C(=O)NO)cc1 (racemic) [Compound 10, (1R,S)-2-(4'-butoxybenzenesulfonyl)-1,2,3,4-tetrahydro-norarmano-N-hydroxy-1-carboxamide] | 4000 ± 1500 nM | < 0.5 nM | 20000 ± 2000 nM | 50 ± 11 nM | < 0.5 nM | 2000 ± 500 nM | 6 ± 2 nM | 7 ± 2.5 nM | – | – | –
10 | O=C(NO)C1c2[nH]c3ccccc3c2CCN1S(=O)(=O)c1ccc(-c2ccccc2)cc1 (racemic) [Compound 11, (1R,S)-2-(4'biphenylsulfonyl)-1,2,3,4-tetrahydro-norarmano-N-hydroxy-1-carboxamide] | 600 nM | 4 ± 1.6 nM | 3000 ± 1000 nM | – | 4.7 ± 0.5 nM | 3 nM | 15 ± 2 nM | 14 ± 3 nM | – | – | –
11 | COc1ccc(Oc2ccc(S(=O)(=O)N3CCc4c([nH]c5ccccc45)C3C(=O)NO)cc2)cc1 (racemic) [Compound 12, (1 RS)-2-(4"-methoxy-4'-phenoxybenzenesulfonyl)-1,2,3,4-tetrahydronorarmano-N-hydroxy-1-carboxamide] | 30000 ± 10000 nM | < 0.5 nM | 350 ± 100 nM | 5 ± 1 nM | < 0.5 nM | < 0.5 nM | < 0.5 nM | < 0.3 nM | – | – | –
12 | O=C(NO)C1c2[nH]c3ccccc3c2CCN1S(=O)(=O)c1ccc(Oc2ccc(Cl)cc2)cc1 (racemic) [Compound 13, (1 RS)-2-(4"-chloro-4'-phenoxybenzenesulfonyl)-1,2,3,4-tetrahydronorarmano-N-hydroxy-1-carboxamide] | – | – | > 50000 nM | 30 nM | – | – | – | < 0.3 nM | ~830 fold | about 16 000 fold | ~100 fold
13 | O=C(NO)C1c2[nH]c3ccccc3c2CCN1S(=O)(=O)c1ccc(Oc2ccc(F)cc2)cc1 (racemic) [Compound 14, (1RS)-2-(4"-fluoro-4'-phenoxybenzenesulfonyl)-1,2,3,4-tetrahydronorarmano-N-hydroxy-1-carboxamide] | 600 ± 200 nM | – | 340 ± 100 nM | 3.2 ± 0.1 nM | < 0.5 nM | < 0.5 nM | < 0.5 nM | < 0.3 nM | – | – | –
14 | COc1ccc2[nH]c3c(c2c1)CCNC3C(=O)O (stereo not shown) [6-methoxy-1,2,3,4-tetrahydronorarmano-1-carboxylic acid, reference compound] | – | – | – | – | 200 nM | – | – | – | – | – | –
15 | CC1(C)SCCN(S(=O)(=O)c2ccc(Oc3ccncc3)cc2)[C@H]1C(=O)NO [prinomastat, (3S)-N-hydroxy-4-(4-(pyrid-4-yloxyl)benzenesulfonyl)-2,2-dimethyltetrahydro-2H-1,4-thiazine-3-carboxamide, reference compound] | – | < 0.5 nM | – | – | < 0.5 nM | – | – | – | – | – | –
